Measurements from ChEMBL document CHEMBL1201862, “PubChem BioAssay data set” (2004).
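Cultured in 96-well plates, cells were exposed to test compound for 48 hours across five concentrations. At the GI50, growth is halved.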 Active and inactive are the calls of the source. Cut-off read from the data, not from the text of the source: active = GI50 up to about 1.1 µM and inactive = higher.

Legend:
Assay in all cases: NCI tumour cell line growth inhibition, 48 h
NCI-H23 = tested on: NCI-H23
SF-539 = tested on: SF-539
DLD-1 = tested on: DLD-1
DMS-273 = tested on: DMS-273
OVCAR-5 = tested on: OVCAR-5
NCI-H522 = tested on: NCI-H522
COLO 205 = tested on: COLO 205
SR = tested on: SR
UO-31 = tested on: UO-31
HT-29 = tested on: HT-29
786-0 = tested on: 786-0
NCI-H460 = tested on: NCI-H460
U-251 = tested on: U-251
NCI-H226 = tested on: NCI-H226
SN12C = tested on: SN12C
DMS-114 = tested on: DMS-114
UACC-62 = tested on: UACC-62
LOX IMVI = tested on: LOX IMVI
XF498 = tested on: XF498
UACC-257 = tested on: UACC-257
M14 = tested on: M14
HOP-18 = tested on: HOP-18
CCRF-CEM = tested on: CCRF-CEM
RPMI-8226 = tested on: RPMI-8226
HOP-62 = tested on: HOP-62
HL-60 = tested on: HL-60
OVCAR-8 = tested on: OVCAR-8
K562 = tested on: K562
HCC 2998 = tested on: HCC 2998
LXFL 529 = tested on: LXFL 529
TK-10 = tested on: TK-10
KM12 = tested on: KM12
SK-MEL-2 = tested on: SK-MEL-2
ACHN = tested on: ACHN
MOLT-4 = tested on: MOLT-4
HCT-15 = tested on: HCT-15
Malme-3M = tested on: Malme-3M
SF-268 = tested on: SF-268
KM-20L2 = tested on: KM-20L2
SW-620 = tested on: SW-620
EKVX = tested on: EKVX
OVCAR-4 = tested on: OVCAR-4
SNB-19 = tested on: SNB-19
IGROV-1 = tested on: IGROV-1
M19-MEL = tested on: M19-MEL
A549 = tested on: A549
SK-MEL-5 = tested on: SK-MEL-5
HCT-116 = tested on: HCT-116
SNB-78 = tested on: SNB-78
OVCAR-3 = tested on: OVCAR-3
SK-MEL-28 = tested on: SK-MEL-28
HOP-92 = tested on: HOP-92
SNB-75 = tested on: SNB-75
RXF 393 = tested on: RXF 393
MDA-MB-435 = tested on: MDA-MB-435
MDA-N = tested on: MDA-N
T47D = tested on: T47D
MCF7 = tested on: MCF7
CAKI-1 = tested on: CAKI-1
A498 = tested on: A498
DU-145 = tested on: DU-145
MDA-MB-231 = tested on: MDA-MB-231
SF-295 = tested on: SF-295
Hs-578T = tested on: Hs-578T
PC-3 = tested on: PC-3
BT-549 = tested on: BT-549
SK-OV-3 = tested on: SK-OV-3

Measured: GI50

COc1cc(C2c3cc4c(cc3[C@H](NS(C)(=O)=O)C3COC(=O)[C@H]23)OCO4)cc(OC)c1OC (stereo not given in full)
0.448 µM: HCT-15
active: NCI-H23 0.223 µM | SF-539 0.165 µM | DLD-1 0.592 µM | DMS-273 0.297 µM | NCI-H522 0.0671 µM | COLO 205 0.186 µM | SR 0.251 µM | HT-29 0.34 µM | 786-0 0.471 µM | NCI-H460 0.615 µM | U-251 0.327 µM | NCI-H226 0.177 µM | SN12C 0.482 µM | DMS-114 0.226 µM | UACC-62 0.162 µM | LOX IMVI 0.419 µM | XF498 0.56 µM | UACC-257 0.612 µM | M14 0.426 µM | CCRF-CEM 0.444 µM | RPMI-8226 0.394 µM | HOP-62 0.177 µM | HL-60 0.253 µM | OVCAR-8 0.439 µM | K562 0.415 µM | HCC 2998 0.435 µM | LXFL 529 0.731 µM | KM12 0.108 µM | ACHN 0.51 µM | MOLT-4 0.418 µM | SF-268 0.778 µM | KM-20L2 0.162 µM
inactive: OVCAR-5 > 100 µM | UO-31 9.35 µM | HOP-18 > 100 µM | TK-10 > 100 µM | SK-MEL-2 > 100 µM | Malme-3M > 100 µM

Cc1cc(O)nc(NN2C(Cl)C(=O)C2c2ccco2)n1 (stereo not given)
inactive: NCI-H23 28 µM | SW-620 64.9 µM | EKVX 87.5 µM | SF-539 22.6 µM | DMS-273 33.7 µM | OVCAR-4 19.7 µM | SNB-19 32 µM | OVCAR-5 > 100 µM | COLO 205 78.2 µM | SR 28.4 µM | UO-31 23.1 µM | IGROV-1 27 µM | HT-29 34 µM | M19-MEL 39.5 µM | NCI-H460 24.6 µM | U-251 30.5 µM | SN12C 24.2 µM | A549 77.6 µM | DMS-114 34.4 µM | UACC-62 26.5 µM | LOX IMVI 23.3 µM | SK-MEL-5 41.7 µM | UACC-257 48.9 µM | M14 33.8 µM | HOP-18 21.1 µM | HCT-116 43.4 µM | CCRF-CEM 8.2 µM | RPMI-8226 16.3 µM | SNB-78 25.7 µM | HOP-62 32.6 µM | HL-60 15.3 µM | OVCAR-8 46.5 µM | OVCAR-3 15.2 µM | SK-MEL-28 > 10 µM | HOP-92 25.1 µM | K562 29.7 µM | HCC 2998 60 µM | LXFL 529 29.3 µM | TK-10 61.2 µM | KM12 44.6 µM | SK-MEL-2 27.6 µM | ACHN 28.2 µM | SNB-75 13.7 µM | RXF 393 13 µM | MOLT-4 21.8 µM | SF-268 29.4 µM | KM-20L2 39.4 µM
31.6 µM: HCT-15

CC1CC2C3CCC4=CC(=O)C=CC4(C)C3(F)C(O)CC2(C)C1(O)C(=O)COP(=O)(O)O (stereo not given)
> 100 µM: HCT-15
inactive: NCI-H23 > 100 µM | SW-620 > 100 µM | EKVX > 100 µM | MDA-MB-435 > 100 µM | SF-539 > 100 µM | DLD-1 > 100 µM | DMS-273 > 100 µM | OVCAR-4 > 100 µM | SNB-19 > 100 µM | MDA-N 8.18 µM | OVCAR-5 > 100 µM | NCI-H522 > 100 µM | T47D > 100 µM | COLO 205 > 100 µM | SR 46.6 µM | UO-31 > 100 µM | IGROV-1 > 100 µM | MCF7 > 100 µM | HT-29 > 100 µM | M19-MEL > 100 µM | CAKI-1 > 100 µM | NCI-H460 > 100 µM | U-251 > 100 µM | NCI-H226 > 100 µM | A549 > 100 µM | UACC-62 > 100 µM | A498 > 100 µM | DU-145 > 100 µM | LOX IMVI > 100 µM | MDA-MB-231 > 100 µM | XF498 > 100 µM | SK-MEL-5 > 100 µM | UACC-257 > 100 µM | M14 > 100 µM | HOP-18 > 100 µM | HCT-116 > 33.7 µM | RPMI-8226 3.42 µM | SNB-78 > 100 µM | HOP-62 > 100 µM | HL-60 > 100 µM | OVCAR-8 > 100 µM | SF-295 > 100 µM | OVCAR-3 > 100 µM | SK-MEL-28 > 100 µM | HOP-92 > 100 µM | Hs-578T > 100 µM | K562 > 100 µM | HCC 2998 > 100 µM | PC-3 > 100 µM | LXFL 529 > 100 µM | TK-10 > 100 µM | BT-549 > 100 µM | KM12 > 100 µM | SK-MEL-2 > 100 µM | ACHN > 100 µM | SNB-75 > 100 µM | RXF 393 > 100 µM | MOLT-4 > 62.7 µM | Malme-3M > 100 µM | SF-268 > 100 µM | KM-20L2 > 100 µM
active: CCRF-CEM 0.144 µM

CCOC(=O)CN(Cn1cncn1)Cn1cncn1
22 µM: HCT-15
inactive: SW-620 24.1 µM | EKVX 43.8 µM | DLD-1 34.9 µM | DMS-273 20.5 µM | OVCAR-4 46.8 µM | OVCAR-5 > 100 µM | COLO 205 36.9 µM | UO-31 > 100 µM | IGROV-1 > 100 µM | HT-29 34.6 µM | 786-0 58.6 µM | M19-MEL 38.7 µM | CAKI-1 56 µM | NCI-H460 24.9 µM | U-251 17.9 µM | NCI-H226 28.1 µM | SK-OV-3 > 100 µM | SN12C 29.4 µM | A549 40.6 µM | UACC-62 33.3 µM | LOX IMVI 21 µM | XF498 20.4 µM | SK-MEL-5 24.2 µM | UACC-257 17.6 µM | M14 > 10 µM | HOP-18 32.8 µM | HCT-116 30.8 µM | CCRF-CEM 47 µM | RPMI-8226 55.2 µM | SNB-78 91 µM | HOP-62 > 100 µM | HL-60 35.7 µM | OVCAR-8 24.7 µM | SF-295 39.4 µM | OVCAR-3 19.6 µM | SK-MEL-28 18.4 µM | HOP-92 > 100 µM | K562 40.6 µM | HCC 2998 33.2 µM | LXFL 529 40.2 µM | TK-10 50.7 µM | KM12 20.2 µM | SK-MEL-2 38.2 µM | ACHN 36.6 µM | SNB-75 20.6 µM | RXF 393 14.8 µM | MOLT-4 45.4 µM | Malme-3M 52 µM | KM-20L2 22.5 µM
